Entries after “also recorded” stand apart in the source; their conditions may differ.
Columns and labels:
[1] = test system: N13 cells (293 cells with VpEcR, RXR and ecdysone inducible reporter); assay: Kinetics of induction in N13 cells (luciferase activity); type: cell-based; conditions: 1 μM muristerone
Procedure: (§1) N13 cells were grown with varying concentrations of muristerone for 36 hours and then assayed for β-galactosidase activity (open squares) by standard ONPG assay or for luciferase activity (closed circles). […] N13 cells were grown in separate wells in the presence of 1 μM muristerone, harvested at varying times, and assayed for luciferase activity as described in Example 3.
Finally, the kinetics of muristerone mediated induction was measured. N13 cells were grown in separate wells in the presence of 1 μM muristerone, harvested at varying times, and assayed for luciferase activity. Inductions of 100-fold in 3 hrs., 1000 fold in 8 hrs., and maximal effects of 20,000 fold after 20 hours of treatment were observed (FIG. 3B).

[2] = test system: N13 cells (293 cells with VpEcR, RXR and ecdysone inducible reporter); assay: Dose-response assay in N13 cells (β-galactosidase and luciferase reporters); type: cell-based; conditions: 36 hours
Procedure: as §1
FIG. 5 compares the dose-dependent activation of N13 cells with muristerone (X) and ponasterone A (open circles).
A dose-response assay was conducted by growing N13 cells with varying concentrations of muristerone for 36 hours and then assaying for β-galactosidase activity (using the well-known ONPG assay), or the cells were assayed for luciferase activity. […] One-hundred fold induction was achieved by muristerone concentrations as low as 100 nM (FIG. 3A).
A dose-response assay was conducted as described in Example 3, by growing N13 cells with varying concentrations of muristerone or ponasterone A for 36 hours and then assaying for β-galactosidase activity (using the well-known ONPG assay), or the cells were assayed for luciferase activity.

[3] = test system: adult mice; assay: Toxicity study in adult mice; type: in vivo; conditions: intraperitoneal, 20 mg in sesame oil, observed approximately two months
Procedure: In order to use muristerone as a potential hormone in mice, its toxicity and bioavailability was examined. For toxicity studies, adult mice were injected intraperitonealy with 20 mg of muristerone A suspended in sesame oil. The mice were then observed for approximately two months. […] In addition to the inert qualities of muristerone (an ecdysone), overexpression of VpEcR and RXR appears not to be toxic.

[4] = test system: N13 cells (293 cells with VpEcR, RXR and ecdysone inducible reporter); assay: X-gal staining of stable cell line N13; type: cell-based; conditions: 24 hours of treatment with 1 μM muristerone; 3 hours of staining
Procedure: Stable cell lines were generated containing the modified ecdysone receptor VpEcR, a heterodimeric partner (RXR), and an ecdysone inducible reporter (FIG. 2). 293 cells were transfected with the following linearized plasmids, pRC-ESHβ, EcREx5-ΔMTV-Luc, CMX-VpEcR, and CMX-hRXRa. The following day, the cells were split 1:10 and were allowed to recover one day prior to selection with 1 mg/ml G418 (GIBCO). After 14 days of selection, 14 individual clones were isolated and grown separately in the presence of 0.5 mg/ml G418.
One of these cell lines, N13, was grown in the presence or absence of 1 μM muristerone for 20 hours. Cell lysates were then assayed for β-galactosidase and luciferase activities as described in Example 1. X-gal staining was performed on the stable cell lines. Cells were fixed briefly with 10% formaldehyde in PBS and then stained with X-Gal (Molecular Probes, Eugene, Oreg.) for 2 to 6 hours. After 24 hours of treatment with 1 μM muristerone, 100% of the cells turned dark blue after 3 hours of staining. Thus, mammalian cells containing the modified ecdysone receptor VpEcR, a heterodimeric partner (RXR), and a reporter gene construct regulated by a modified ecdysone response element, function to efficiently express an exogenous gene in response to a ligand, e.g., ecdysone.

[5] = test system: CV-1 cells transfected with CMX-GEcR, CMX-hRXRa, and EcREx5-DMTV-Luc; assay: Bioavailability study: serum of injected mice tested on transfected CV-1 cells; type: in vivo
Procedure: For muristerone bioavailability studies, adult mice were injected intraperitoneally with sesame oil with or without […] of muristerone, and were subsequently sacrificed for serum collection. After twelve hours, blood was drawn from the mice, and the serum was isolated by brief centrifugation of the whole blood. In order to conduct transfection assays to test for muristerone activity, serum from sesame oil injected mice was divided, and half was supplemented with muristerone to a final concentration of 10 μM. The three batches of mouse serum were diluted 1:10 in DMEM and placed onto CV-1 cells transfected with CMX-GEcR, CMX-hRXRa, and EcREx5-DMTV-Luc.

[6] = test system: ecdysone inducible promoter (CD3-VpEcR; CD3-RXR; ESHβ); assay: Northern blot of receptor/reporter double transgenic mice; type: in vivo; conditions: 10 mg intraperitoneal, RNA 48 hours after treatment, thymus
Procedure: To produce transgenic mice, the following DNA constructs were prepared and subsequently injected into fertilized eggs: CD3-VpEcR, CD3-RXR, ESHβ (Lee et al., J. Exp. Med. 175:1013-1025 (1992)). Two separate lines of transgenic mice were generated harboring either an ecdysone inducible reporter, ESHβ, or a T-cell specific expression construct of VpEcR and RXR, respectively. The former are referred to as reporter mice, the latter are referred to as receptor mice, and double transgenic mice are referred to as receptor/reporter mice. Constructs CD3-VpEcR and CD3-RXR were mixed and coinjected, while ESHB was injected alone. Primary genotyping was performed by Southern blot analysis and the transmission of transgenic mice was monitored by dot blot analysis. Receptor mice were analyzed for VpEcR and RXR expression by Northern blot analysis of RNA collected from these mice. For Northern blot analysis, 15 μg of total RNA obtained from the thymus, and various tissues as a control, was run on a denaturing gel and blotted onto a nitrocellulose membrane. The blot was probed with a radiolabeled β-gal-specific probe and exposed on film for 2 days. These receptor mice were healthy, fertile, and appeared normal by visual inspection. In addition, the transgene was transferred to the offspring as expected by Mendelian genetics. […]

[7] = biological target: T1, ecdysone receptor (EcR)/USP (Drosophila melanogaster, UniProt P34021); assay: Transient transfection reporter assay in CV-1 cells, ecdysone receptor with USP; type: cell-based; conditions: 1 μM muristerone A, unmodified ecdysone receptor
T1 construct: expressed in transfected cells; host or cells: CV-1 cells
T1 sequence (P34021 1-878): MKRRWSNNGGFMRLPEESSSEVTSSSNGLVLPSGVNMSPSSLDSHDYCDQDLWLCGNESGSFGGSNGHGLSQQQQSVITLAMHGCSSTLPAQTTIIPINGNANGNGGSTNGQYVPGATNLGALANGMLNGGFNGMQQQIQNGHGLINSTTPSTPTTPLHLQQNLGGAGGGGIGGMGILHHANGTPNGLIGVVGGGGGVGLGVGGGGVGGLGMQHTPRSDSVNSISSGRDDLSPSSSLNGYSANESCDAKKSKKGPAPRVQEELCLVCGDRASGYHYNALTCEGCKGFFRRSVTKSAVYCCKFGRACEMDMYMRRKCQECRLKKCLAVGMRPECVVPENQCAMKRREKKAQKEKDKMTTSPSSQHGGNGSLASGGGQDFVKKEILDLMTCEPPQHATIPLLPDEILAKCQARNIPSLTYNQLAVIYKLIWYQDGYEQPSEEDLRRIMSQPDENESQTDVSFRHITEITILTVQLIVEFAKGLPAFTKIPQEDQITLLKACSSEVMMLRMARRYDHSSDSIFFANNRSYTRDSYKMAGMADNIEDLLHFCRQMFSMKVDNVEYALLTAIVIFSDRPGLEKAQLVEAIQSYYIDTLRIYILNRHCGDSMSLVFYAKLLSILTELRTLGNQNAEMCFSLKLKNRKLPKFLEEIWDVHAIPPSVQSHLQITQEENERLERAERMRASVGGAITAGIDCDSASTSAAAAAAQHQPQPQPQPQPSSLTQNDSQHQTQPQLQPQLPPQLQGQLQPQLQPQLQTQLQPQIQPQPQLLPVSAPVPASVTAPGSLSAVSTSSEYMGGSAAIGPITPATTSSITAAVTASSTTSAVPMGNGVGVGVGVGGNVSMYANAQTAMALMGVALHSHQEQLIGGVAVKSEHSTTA
T1 sequence (P20153 1-508 partner): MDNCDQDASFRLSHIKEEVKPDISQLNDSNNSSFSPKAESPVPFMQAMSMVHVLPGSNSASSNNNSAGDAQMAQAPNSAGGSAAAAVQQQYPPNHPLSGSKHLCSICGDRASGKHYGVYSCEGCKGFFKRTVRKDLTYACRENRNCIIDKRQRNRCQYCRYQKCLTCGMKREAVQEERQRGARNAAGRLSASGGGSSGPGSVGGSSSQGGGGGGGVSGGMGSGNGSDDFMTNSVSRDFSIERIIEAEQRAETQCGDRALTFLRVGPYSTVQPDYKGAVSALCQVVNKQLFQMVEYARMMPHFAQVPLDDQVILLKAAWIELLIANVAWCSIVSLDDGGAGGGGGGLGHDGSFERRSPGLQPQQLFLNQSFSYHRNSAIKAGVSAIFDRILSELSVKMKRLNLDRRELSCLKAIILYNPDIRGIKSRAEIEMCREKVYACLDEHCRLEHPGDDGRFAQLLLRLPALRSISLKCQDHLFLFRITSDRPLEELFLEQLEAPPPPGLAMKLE
Procedure: CV-1 cells were maintained in DMEM supplemented with 10%. Fetal Bovine Serum. Transient transfections were performed using DOTAP transfection reagent (Boehringer-Mannheim). Transfections using β-galactosidase as the reporter were assayed either by Galactolight luminescent assay (Tropix, Bedford, Mass.) or by standard liquid ONPG assay (Sigma, St. Louis, Mo.). The values were normalized by co-transfection of CMX-luciferase. Transfections using luciferase as the reporter were assayed by standard techniques using luciferin and ATP. These values were normalized by co-transfection of CMX-β-galactosidase. Hormone treated cells were treated with ethanol, 50 μM Juvenile Hormone III (Sigma), 1 μM muristerone A (Zambon, Bresso, IT), or 1 μM dexamethasone (Sigma) unless otherwise noted.
To maximize the sensitivity of the invention ecdysone inducible system, modifications of the ecdysone receptor were made. The N-terminal transactivation domain of the ecdysone receptor was replaced by the corresponding domain of the glucocorticoid receptor (GR), resulting in the modified ecdysone receptor GEcR (See FIG. 1D). CV-1 cells were transfected with the plasmid CMX-GEcR encoding the modified ecdysone receptor as discussed above. […]

[8] = test system: pregnant mice; assay: Teratogenic study in pregnant mice; type: in vivo; conditions: 20 mg in sesame oil, mother and pups observed three months

With CC(C)CC[C@@H](O)[C@](C)(O)[C@H]1CC[C@@]2(O)C3=CC(=O)[C@]4(O)C[C@@H](O)[C@@H](O)C[C@]4(C)[C@H]3[C@H](O)C[C@]12C [muristerone A] as the molecule, how does the “induction of luciferase activity” value ([1]; 3 hrs) read?
The value was 100 fold.

What about the “induction of luciferase activity” value ([1]; 8 hrs) of the same molecule?
The value was 1000 fold.

What about the “maximal induction of luciferase activity” value ([1]; after 20 hours of treatment) of the same molecule?
The value was 20,000 fold.

And the fold induction ([2]; concentrations as low as 100 nM)?
Its fold induction is “One-hundred”.

What about the “inducibility of β-galactosidase and luciferase reporters” value ([2]; final concentration 10 μM) of the same molecule?
The value was ~3 orders of magnitude.

What about the toxicity [3] of the same molecule?
The toxicity was “neither toxic”.

And the “cells turned dark blue (X-gal staining)” value [4]?
Its value is 100%.

What about the “luciferase activity of serum from treated mice” value ([5]; intraperitoneal 10 μmg in sesame oil, serum after twelve hours, diluted 1:10 in DMEM) of the same molecule?
The value was “comparable to that seen from untreated mouse serum supplemented with 1 μM muristerone”.

What about the “activity when injected into mice” value ([5]; mice, intraperitoneal) of the same molecule?
Its value is “maintains its activity”.

And the “inactivation or blunting of activity by serum proteins” value ([5]; mouse serum)?
The value was “nor inactivated by serum binding proteins; also recorded: little or no blunting of activity”.

And the “induction from an ecdysone inducible promoter (Northern blot)” value [6]?
Its value is “significant induction”.

What about the “muristerone responsiveness (fold induction)” value [7] of the same molecule?
Its value is 3 fold.

What about the teratogenicity [8] of the same molecule?
Its teratogenicity is “neither toxic, teratogenic”.
